Some results are limits rather than exact numbers.

Common to all, as to type: biochemical
Assay [1] has as its target T1, PARP4 Brct-cat (Homo sapiens, UniProt Q9UKK3).
T1 construct: PARP4 Brct-cat
T1 sequence (Q9UKK3 1-573 limits assumed): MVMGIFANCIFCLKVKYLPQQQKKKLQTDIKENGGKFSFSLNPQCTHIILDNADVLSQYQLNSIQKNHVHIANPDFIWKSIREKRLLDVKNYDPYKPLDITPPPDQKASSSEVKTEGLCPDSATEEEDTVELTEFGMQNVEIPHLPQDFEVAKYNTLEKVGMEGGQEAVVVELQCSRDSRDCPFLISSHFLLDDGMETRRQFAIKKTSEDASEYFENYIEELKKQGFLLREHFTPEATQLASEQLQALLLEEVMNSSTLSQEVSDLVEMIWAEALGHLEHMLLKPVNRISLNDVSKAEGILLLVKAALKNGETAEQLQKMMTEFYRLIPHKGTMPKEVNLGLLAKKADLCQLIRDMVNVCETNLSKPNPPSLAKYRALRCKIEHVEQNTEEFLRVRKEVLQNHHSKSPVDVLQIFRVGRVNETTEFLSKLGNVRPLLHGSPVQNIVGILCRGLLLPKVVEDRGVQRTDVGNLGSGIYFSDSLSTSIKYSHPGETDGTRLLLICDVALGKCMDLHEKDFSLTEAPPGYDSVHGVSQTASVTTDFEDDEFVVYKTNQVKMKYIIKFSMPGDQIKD
Kind of assay: In vitro IC50, PARP4 Brct-cat. The conditions noted are these: SEM from a minimum of three dose-response experiments.

The target of assay [2] is T2, PARP15 cat (Homo sapiens, UniProt Q460N3).
T2 construct: cat-wwe; cat
T2 sequence (Q460N3 482-678 limits assumed): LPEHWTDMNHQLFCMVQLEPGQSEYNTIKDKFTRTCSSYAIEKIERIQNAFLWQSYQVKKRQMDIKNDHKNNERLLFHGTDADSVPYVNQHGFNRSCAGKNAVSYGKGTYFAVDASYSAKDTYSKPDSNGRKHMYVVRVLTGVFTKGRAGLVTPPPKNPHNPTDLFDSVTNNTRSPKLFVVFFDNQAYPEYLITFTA
The assay is described as follows: In vitro IC50, PARP15 cat. The conditions noted are these: SEM from a minimum of three dose-response experiments.

For assay [3], the target named is T3, PARP6 (Homo sapiens, UniProt Q2NL67).
T3 construct: expressed in transfected cells; host or cells: HEK 293T
T3 sequence (Q2NL67 whole entry): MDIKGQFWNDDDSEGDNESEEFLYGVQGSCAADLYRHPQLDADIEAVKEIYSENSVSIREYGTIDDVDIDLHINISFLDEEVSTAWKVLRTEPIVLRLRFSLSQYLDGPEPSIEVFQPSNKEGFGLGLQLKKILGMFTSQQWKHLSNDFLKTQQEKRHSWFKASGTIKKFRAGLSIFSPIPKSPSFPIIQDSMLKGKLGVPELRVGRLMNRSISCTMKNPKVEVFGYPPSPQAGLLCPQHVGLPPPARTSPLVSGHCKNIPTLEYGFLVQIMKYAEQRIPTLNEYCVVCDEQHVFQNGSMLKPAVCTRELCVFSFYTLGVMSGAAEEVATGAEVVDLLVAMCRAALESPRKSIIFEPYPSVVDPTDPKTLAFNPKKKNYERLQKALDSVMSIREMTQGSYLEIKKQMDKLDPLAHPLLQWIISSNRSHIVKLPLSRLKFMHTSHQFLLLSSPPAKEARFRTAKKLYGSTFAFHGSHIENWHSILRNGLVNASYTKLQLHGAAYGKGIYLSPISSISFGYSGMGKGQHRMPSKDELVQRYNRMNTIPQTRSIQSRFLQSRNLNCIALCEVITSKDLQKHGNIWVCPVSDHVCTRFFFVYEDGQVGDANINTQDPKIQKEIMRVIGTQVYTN
Kind of assay: In vitro IC50, immunoprecipitated GFP-PARP6 auto-MARylation.
Experimental: (§1) Auto-MARylation was analyzed by Western blot with an ADP-ribose (ADPr) binding reagent (uncropped blots shown below).

For assay [4], the target named is T4, PARP10cat (Homo sapiens, UniProt Q53GL7).
T4 construct: bcat; cat; PARP11
T4 sequence (Q53GL7 806-1025 limits assumed): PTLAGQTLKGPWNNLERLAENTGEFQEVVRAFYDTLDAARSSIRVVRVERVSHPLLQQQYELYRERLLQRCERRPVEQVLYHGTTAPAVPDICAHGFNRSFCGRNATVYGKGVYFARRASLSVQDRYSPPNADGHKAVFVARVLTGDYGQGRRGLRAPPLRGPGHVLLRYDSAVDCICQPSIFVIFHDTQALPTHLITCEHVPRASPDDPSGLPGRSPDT
Kind of assay: In vitro IC50, PARP10cat. The conditions noted are these: SEM from a minimum of three dose-response experiments.

Assay [5] deals with T5, PARP8 (Homo sapiens, UniProt Q8N3A8).
T5 construct: expressed in transfected cells; host or cells: HEK 293T
T5 sequence (Q8N3A8 1-854): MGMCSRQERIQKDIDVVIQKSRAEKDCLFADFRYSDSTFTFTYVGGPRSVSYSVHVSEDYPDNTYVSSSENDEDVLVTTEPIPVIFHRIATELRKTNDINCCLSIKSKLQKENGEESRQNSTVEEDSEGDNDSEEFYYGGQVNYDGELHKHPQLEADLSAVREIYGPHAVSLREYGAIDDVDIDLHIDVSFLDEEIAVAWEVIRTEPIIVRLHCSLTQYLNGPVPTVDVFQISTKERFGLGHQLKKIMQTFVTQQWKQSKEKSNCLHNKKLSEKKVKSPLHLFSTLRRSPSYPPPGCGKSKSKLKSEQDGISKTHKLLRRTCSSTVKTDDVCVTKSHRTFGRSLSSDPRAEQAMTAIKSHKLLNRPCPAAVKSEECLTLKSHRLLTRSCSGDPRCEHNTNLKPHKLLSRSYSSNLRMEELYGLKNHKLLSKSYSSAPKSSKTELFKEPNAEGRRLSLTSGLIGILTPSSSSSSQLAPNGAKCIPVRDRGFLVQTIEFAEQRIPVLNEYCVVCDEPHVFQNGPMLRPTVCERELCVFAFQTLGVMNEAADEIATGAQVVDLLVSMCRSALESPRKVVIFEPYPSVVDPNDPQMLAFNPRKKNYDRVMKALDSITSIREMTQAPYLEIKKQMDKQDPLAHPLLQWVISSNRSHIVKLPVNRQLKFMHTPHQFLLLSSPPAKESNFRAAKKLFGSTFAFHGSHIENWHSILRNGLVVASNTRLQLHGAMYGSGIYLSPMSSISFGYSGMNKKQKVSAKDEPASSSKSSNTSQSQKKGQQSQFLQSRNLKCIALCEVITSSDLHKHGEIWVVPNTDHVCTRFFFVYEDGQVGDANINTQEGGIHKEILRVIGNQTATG
The assay is described as follows: In vitro IC50, immunoprecipitated GFP-PARP8 auto-MARylation.
Experimental: as §1

The target in assay [6] is T6, PARP14 cat-wwe (Homo sapiens, UniProt Q460N5).
T6 construct: PARP14 cat-wwe; no borders given for the assay protein
T6 sequence (Q460N5 1523-1801 limits assumed): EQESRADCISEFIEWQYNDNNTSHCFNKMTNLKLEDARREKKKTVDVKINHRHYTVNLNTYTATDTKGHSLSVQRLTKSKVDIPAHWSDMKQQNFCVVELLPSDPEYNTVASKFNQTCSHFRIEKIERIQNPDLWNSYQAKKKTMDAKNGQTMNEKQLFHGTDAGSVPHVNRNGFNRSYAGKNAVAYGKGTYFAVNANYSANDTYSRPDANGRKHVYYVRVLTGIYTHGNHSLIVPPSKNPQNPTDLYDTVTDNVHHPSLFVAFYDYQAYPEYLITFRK
The assay is described as follows: In vitro IC50, PARP14 cat-wwe. The conditions noted are these: SEM from a minimum of three dose-response experiments.

One may read the IC50 as the midpoint of a concentration-inhibition curve. Read a low IC50 as greater potency in that assay. On to `CC#Cc1ccc2c(=O)[nH]c(CSc3ccc(C(=O)O)cc3)nc2c1C` [ITK6, 4-(((8-methyl-4-oxo-7-(prop-1-yn-1-yl)-3,4-dihydroquinazolin-2-yl)methyl)thio) benzoic acid], for which the IC50 was greater than 30 µM in assay [1]; 0.496 ± 0.19 µM in assay [2]; greater than 3 µM in assay [3]; 0.156 ± 0.018 µM in assay [4]; greater than 3 µM in assay [5]; 0.917 ± 0.086 µM in assay [6].
In the case of `CC#Cc1ccc2c(=O)[nH]c(CSc3ncccn3)nc2c1C` [ITK7, 8-methyl-7-(prop-1-yn-1-yl)-2-((pyrimidin-2-ylthio)methyl)quinazolin-4(3H)-one], the half-inhibitory concentration (IC50) in assay [1] is greater than 30 µM; in assay [2], greater than 30 µM; in assay [3], greater than 3 µM; in assay [4], 9.28 ± 1.57 µM; in assay [5], greater than 3 µM; in assay [6], 2.86 ± 0.35 µM.

The values above are taken from patent US12404250B2, “PARP inhibitors for treating cancer and asthma” (Oregon Health & Science University, priority 2018, dated 2025).
